From patent US8846001B2 (GE Healthcare Limited, priority 2009, dated 2014)

What was measured:
avidin = target: T1, avidin (Gallus gallus, UniProt P02701); test: Avidin binding saturation in solution, percentage binding determined by HPLC; conditions: 2-128 nmol ligand, 2 nmol avidin, 5 min, room temperature
T1 construct: avidin (lyophilised powder, from egg white); purchased Sigma-Aldrich; host or cells: egg white
Protocol: The percentage binding was determined by HPLC analysis.
The incubation was carried out during 5 min at room temperature with varied ligand concentration resulting in ligand/avidin ratio of 0.25, 1, 4 and 16. Data are presented as mean±SD (n=2). […] The specific binding presented as the avidin consumption in percentage was plotted against the ratio of total molar concentration of added ligands and avidin. The result was analyzed by nonlinear regression using the GraphPad Prism Software.

porcine islets = porcine islets in vitro; cited from earlier work

T1 sequence (P02701 25-152): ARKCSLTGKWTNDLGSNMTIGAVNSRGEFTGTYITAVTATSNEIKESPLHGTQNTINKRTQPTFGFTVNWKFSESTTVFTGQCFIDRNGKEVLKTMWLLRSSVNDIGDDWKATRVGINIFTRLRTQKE

Row | SMILES | binding to avidin in solution (in words) (avidin) | half-life of retention (porcine islets)
1 | O=C(O)CCCC[C@@H]1SC[C@@H]2NC(=O)N[C@@H]21 [Biotin, 5-[(3aS,4S,6aR)-2-oxohexahydro-1H-thieno[3,4-d]imidazol-4-yl]pentanoic acid] | highest binding | 
2 | OC[C@H]1OC(O)[C@H]([18F])[C@@H](O)[C@@H]1O (some centres unmarked) [[^18F]FDG] |  | 2.358 h
